Active and inactive are the calls of the source. For most assays here, no stated cut-off is given here; in the data, actives have a measured IC50 and inactives only a lower limit.
What was measured:
Coagulation factor XII = Coagulation factor XII (Homo sapiens, UniProt P00748); type: functional;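 further: activated factor XIIa alpha cleaving a fluorogenic AMC peptide substrate; inhibitor potency from loss of enzyme activity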
[1] = molecular target: Sphingosine 1-phosphate receptor 4 (Homo sapiens, UniProt O95977); test: Late-stage fluorescence dose response cell-based assay to identify agonists of the Sphingosine 1-Phosphate Receptor 4 (S1P4): purchased compounds EC50. [Related pubchem assays (depositor defined):AID1509, AID1523, AID1563, AID1686, AID1701, AID1801]; type: functional
Sequence of Sphingosine 1-phosphate receptor 4 (O95977 whole entry): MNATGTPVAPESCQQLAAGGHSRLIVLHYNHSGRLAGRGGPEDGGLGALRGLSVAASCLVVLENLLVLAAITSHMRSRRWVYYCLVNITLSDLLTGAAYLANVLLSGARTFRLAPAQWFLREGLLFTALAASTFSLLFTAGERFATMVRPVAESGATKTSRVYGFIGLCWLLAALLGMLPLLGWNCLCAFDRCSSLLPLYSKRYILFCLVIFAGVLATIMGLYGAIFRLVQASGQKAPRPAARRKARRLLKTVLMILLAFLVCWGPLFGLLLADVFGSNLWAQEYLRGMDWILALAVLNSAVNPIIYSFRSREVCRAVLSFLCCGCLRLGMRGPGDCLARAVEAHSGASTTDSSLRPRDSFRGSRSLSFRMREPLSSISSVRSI

[2] = molecular target: T1, Tyrosine-protein phosphatase non-receptor type 22 (Homo sapiens, UniProt Q9Y2R2); test: SAR LYP1 Fluorescent Assay using pCAP substrate for In Vitro dose response studies - Set 2. [Related pubchem assays (depositor defined):AID1779, AID1784, AID2135, AID449727]; type: functional
T1 sequence (Q9Y2R2 whole entry): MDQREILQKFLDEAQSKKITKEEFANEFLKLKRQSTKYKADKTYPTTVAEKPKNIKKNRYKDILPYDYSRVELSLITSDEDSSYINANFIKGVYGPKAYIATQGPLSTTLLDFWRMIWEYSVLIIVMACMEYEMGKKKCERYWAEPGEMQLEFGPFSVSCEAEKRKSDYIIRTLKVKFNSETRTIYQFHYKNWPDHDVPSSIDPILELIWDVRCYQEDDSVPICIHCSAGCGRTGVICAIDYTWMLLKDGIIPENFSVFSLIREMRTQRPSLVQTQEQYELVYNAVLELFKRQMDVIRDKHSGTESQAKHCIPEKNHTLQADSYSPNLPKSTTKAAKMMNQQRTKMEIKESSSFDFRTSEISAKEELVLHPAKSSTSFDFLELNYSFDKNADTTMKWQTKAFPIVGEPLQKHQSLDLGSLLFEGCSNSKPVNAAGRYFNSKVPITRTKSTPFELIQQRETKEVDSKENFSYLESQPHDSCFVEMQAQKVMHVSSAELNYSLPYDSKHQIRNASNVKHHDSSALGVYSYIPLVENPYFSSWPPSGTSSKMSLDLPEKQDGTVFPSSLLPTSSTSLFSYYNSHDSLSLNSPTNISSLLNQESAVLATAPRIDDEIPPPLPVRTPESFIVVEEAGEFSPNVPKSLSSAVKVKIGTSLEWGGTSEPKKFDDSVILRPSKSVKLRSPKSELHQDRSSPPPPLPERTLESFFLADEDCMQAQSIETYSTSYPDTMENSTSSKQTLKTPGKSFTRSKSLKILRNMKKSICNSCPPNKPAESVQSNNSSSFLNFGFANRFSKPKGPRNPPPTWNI

[3] = molecular target: T1, Tyrosine-protein phosphatase non-receptor type 22; test: LYP (PTPN22) phosphatase inhibitor potency, SAR follow-up, biochemical, pCAP fluorogenic substrate, fluorescence, set 3 (AID 449727); type: functional
[4] = molecular target: T2, Carboxy-terminal domain RNA polymerase II polypeptide A small phosphatase 1 (Homo sapiens, UniProt Q9GZU7); test: inhibitors of CTDSP1, concentration-response testing, biochemical assay, absorbance-based, actives from ultra-high-throughput screening (AID 540297); type: functional
T2 sequence (Q9GZU7 whole entry): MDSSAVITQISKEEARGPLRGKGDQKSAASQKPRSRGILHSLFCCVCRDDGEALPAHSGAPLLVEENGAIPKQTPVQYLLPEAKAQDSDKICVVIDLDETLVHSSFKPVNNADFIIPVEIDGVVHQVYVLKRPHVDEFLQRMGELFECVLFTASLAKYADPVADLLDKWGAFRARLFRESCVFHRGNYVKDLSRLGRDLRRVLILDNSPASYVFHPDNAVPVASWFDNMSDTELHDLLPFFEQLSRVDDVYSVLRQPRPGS

[5] = molecular target: T1, Tyrosine-protein phosphatase non-receptor type 22; test: SAR LYP1 Fluorescent Assay using OMFP substrate for In Vitro dose response studies - Set 2. [Related pubchem assays (depositor defined):AID1779, AID1784, AID2140, AID449726, AID488869]; type: functional
[6] = molecular target: T3, Tyrosine-protein phosphatase non-receptor type 7 (Homo sapiens, UniProt P35236); test: HePTP (PTPN7) phosphatase inhibitor potency, SAR follow-up, biochemical, set 2 (AID 449736); type: functional
T3 sequence (P35236 whole entry): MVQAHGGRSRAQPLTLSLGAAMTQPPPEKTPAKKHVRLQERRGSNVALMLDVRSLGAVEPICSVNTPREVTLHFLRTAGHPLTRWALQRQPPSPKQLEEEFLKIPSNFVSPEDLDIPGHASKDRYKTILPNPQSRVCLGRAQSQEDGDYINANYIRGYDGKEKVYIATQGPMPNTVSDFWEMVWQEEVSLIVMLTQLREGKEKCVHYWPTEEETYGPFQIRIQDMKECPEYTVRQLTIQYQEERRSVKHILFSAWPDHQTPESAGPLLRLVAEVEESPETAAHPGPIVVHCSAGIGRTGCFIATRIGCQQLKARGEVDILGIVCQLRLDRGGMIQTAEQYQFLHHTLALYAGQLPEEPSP

[7] = molecular target: Tyrosine-protein phosphatase non-receptor type 12 (Homo sapiens, UniProt Q05209); test: SAR Selectivity Analysis of small molecule inhibitors of PEST using pCAP in a fluorescence assay. [Related pubchem assays (depositor defined):AID1779, AID1784, AID2135]; type: functional
Sequence of Tyrosine-protein phosphatase non-receptor type 12 (Q05209 whole entry): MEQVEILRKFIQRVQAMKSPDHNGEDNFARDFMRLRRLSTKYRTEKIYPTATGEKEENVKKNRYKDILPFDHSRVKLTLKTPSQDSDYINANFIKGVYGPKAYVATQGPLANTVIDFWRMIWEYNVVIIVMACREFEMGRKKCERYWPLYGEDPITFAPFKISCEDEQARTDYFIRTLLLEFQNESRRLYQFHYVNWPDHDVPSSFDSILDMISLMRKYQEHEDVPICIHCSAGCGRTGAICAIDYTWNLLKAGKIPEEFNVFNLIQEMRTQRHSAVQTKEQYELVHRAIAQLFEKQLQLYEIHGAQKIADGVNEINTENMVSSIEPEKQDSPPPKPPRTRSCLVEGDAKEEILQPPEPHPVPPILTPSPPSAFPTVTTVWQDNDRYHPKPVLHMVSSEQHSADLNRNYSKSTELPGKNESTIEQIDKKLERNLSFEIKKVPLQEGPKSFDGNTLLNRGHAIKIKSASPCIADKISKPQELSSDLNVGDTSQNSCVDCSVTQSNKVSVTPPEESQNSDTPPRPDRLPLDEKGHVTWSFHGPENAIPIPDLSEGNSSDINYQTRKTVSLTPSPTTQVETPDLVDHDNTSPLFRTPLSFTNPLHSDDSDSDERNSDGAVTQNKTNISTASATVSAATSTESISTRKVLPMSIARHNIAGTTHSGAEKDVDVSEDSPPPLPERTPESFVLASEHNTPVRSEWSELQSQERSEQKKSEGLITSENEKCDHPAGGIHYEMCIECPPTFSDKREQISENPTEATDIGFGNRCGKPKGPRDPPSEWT

[8] = molecular target: T1, Tyrosine-protein phosphatase non-receptor type 22; test: SAR LYP1 Fluorescent Assay using OMFP substrate for In Vitro dose response studies - Set 3. [Related pubchem assays (depositor defined):AID1779, AID1784, AID2140, AID2686]; type: functional
[9] = Vero E6 cell cytotoxicity, dose response, cytotoxicity control for non-replicating M. tuberculosis project, secondary assay (AID 492998); type: functional, VeroE6; details: Vero C1008

Sequence of Coagulation factor XII (P00748 20-372 limits assumed): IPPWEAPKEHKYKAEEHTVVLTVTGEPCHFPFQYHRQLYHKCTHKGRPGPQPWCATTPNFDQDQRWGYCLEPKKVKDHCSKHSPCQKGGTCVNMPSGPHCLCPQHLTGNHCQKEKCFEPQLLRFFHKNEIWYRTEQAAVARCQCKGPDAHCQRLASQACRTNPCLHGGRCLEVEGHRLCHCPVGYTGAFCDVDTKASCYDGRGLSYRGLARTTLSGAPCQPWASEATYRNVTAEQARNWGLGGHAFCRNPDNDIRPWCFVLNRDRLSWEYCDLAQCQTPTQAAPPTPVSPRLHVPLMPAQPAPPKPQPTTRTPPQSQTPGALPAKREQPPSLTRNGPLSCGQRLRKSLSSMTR
Sequence of Coagulation factor XII (P00748 373-615 limits assumed): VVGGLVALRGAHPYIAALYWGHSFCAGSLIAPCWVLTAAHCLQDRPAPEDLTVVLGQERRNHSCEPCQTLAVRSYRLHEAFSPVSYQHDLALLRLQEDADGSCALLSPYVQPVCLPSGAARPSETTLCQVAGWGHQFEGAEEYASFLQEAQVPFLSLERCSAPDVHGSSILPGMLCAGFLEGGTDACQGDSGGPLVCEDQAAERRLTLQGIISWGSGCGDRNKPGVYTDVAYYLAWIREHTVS

## CCCCOC(=O)c1ccc(NC(=O)C(=O)NCc2ccco2)cc1
Coagulation factor XII
  IC50: > 50 µM (inactive)

## Cc1ccc(OCc2cc3ccc(C)c(C)c3nc2Cl)c([N+](=O)[O-])n1
[1]
  EC50: > 50 µM (inactive)

## N#C/C(=C\c1ccc(OCc2ccc(F)cc2)cc1)C(=O)Nc1cccc(C(=O)O)c1
[2]
  IC50: 5.52 µM (active)
[3]
  IC50: 6.93 µM (active)
[4]
  IC50: 4.13 µM (active)
[5]
  IC50: 5.27 µM (active)
[6]
  IC50: 2.03 µM (active)
[7]
  IC50: 0.916 µM (active)
[8]
  IC50: 0.967 µM (active)

## N=C(NOC(=O)c1cccc2ccccc12)c1cccnc1
[9]
  CC50: 15 µM (active)

— ChEMBL document CHEMBL1201862, “PubChem BioAssay data set” (2004)
